Results on twelve compounds are retold here after patent US12594276B2, “Inhibitors of human immunodeficiency virus replication” (ViiV Healthcare UK (No.5) Limited, priority 2024, dated 2026).

Where only a bound is given, the exact number is not on record here.

For data set [1], the system named is recombinant NL4-3 virus (nef section replaced with Renilla luciferase gene) in MT-2 cells. In words: HIV cell culture assay (antiviral activity, luciferase readout). The data set is classed as cell-based. The note with it: Renilla, NL43, MT-2 cells infected for 4-5 days with recombinant NL4-3 Renilla luciferase virus. The procedure, abridged:
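Read-out: Renilla luciferase (live-cell substrate) in infected MT-2 cells after 4-5 d with serial compound dilutions. Virus from 293T transfection of the proviral clone, titered by luciferase in MT-2. EC50 via median effect equation fit.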

Data set [2] in a line: Compound cytotoxicity, XTT-based colorimetric assay. The format is cell-based. The conditions noted are these: human; uninfected MT2 cells, day 4, XTT; read-out: CC50. The procedure, abridged:
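Follows the antiviral assay procedure, but with uninfected MT2 cells. On day 4, cell viability is measured by XTT-based colorimetry, giving CC50 values.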
(In general: Tetrazolium assays rely on reduction of a dye to a coloured formazan, in cell work by metabolically active cells.)

As a reminder, the EC50 is the midpoint of the concentration-response curve. As a reminder, the CC50 is the concentration that lowers cell viability or growth by half.

As to `Cc1cc(C2(F)CCC(F)(F)CC2)nc2nc([C@H](Cc3cc(F)cc(F)c3)NC(=O)Cn3nc(C4CC4)c4c3C[C@@H]3C[C@H]43)n(-c3ccc(Cl)c4c(NS(C)(=O)=O)nn([C@H](C)CN5C[C@@H](C)O[C@@H](C)C5)c34)c(=O)c12` (relative stereo) [Example 730, N-[(1S)-1-[(3P)-3-{4-chloro-1-[(2R)-1-[(2R,6S)-2,6-dimethylmorpholin-4-yl]propan-2-yl]-3-methanesulfonamido-1H-indazol-7-yl}-5-methyl-4-oxo-7-(1,4,4-trifluorocyclohexyl)-3H,4H-pyrido[2,3-d]pyrimidin-2-yl]-2-(3,5-difluorophenyl)ethyl]-2-[(2R*,4R*)-9-cyclopropyl-7,8-diazatricyclo[4.3.0.0^2,^4]nona-1(6),8-dien-7-yl]acetamide], the EC50 in data set [1] stood at 0.032 nM. Further, the CC50 at 4 days in data set [2] is > 20 nM.
In the case of `Cc1cc(C2CCC(F)(F)CC2)nc2nc([C@H](Cc3cc(F)cc(F)c3)NC(=O)Cn3nc(C4CC4)c4c3C[C@@H]3C[C@H]43)n(-c3ccc(Cl)c4c(NS(C)(=O)=O)nn([C@H](C)CN5C[C@H](F)C[C@H](F)C5)c34)c(=O)c12` (relative stereo) [Example 732, N-[(1S)-1-[(3P)-3-{4-chloro-1-[(2R)-1-[(3R,5S)-3,5-difluoropiperidin-1-yl]propan-2-yl]-3-methanesulfonamido-1H-indazol-7-yl}-7-(4,4-difluorocyclohexyl)-5-methyl-4-oxo-3H,4H-pyrido[2,3-d]pyrimidin-2-yl]-2-(3,5-difluorophenyl)ethyl]-2-[(2R*,4R*)-9-cyclopropyl-7,8-diazatricyclo[4.3.0.0^2,^4]nona-1(6),8-dien-7-yl]acetamide], the 50% effective concentration (EC50) in data set [1] was determined as 0.013 nM. For the same compound, the cytotoxic concentration (CC50) at 4 days in data set [2] was > 20 nM.
In the case of `Cc1cc(C2CCC(F)(F)CC2)nc2nc([C@H](Cc3cc(F)cc(F)c3)NC(=O)Cn3nc(C4CC4)c4c3C[C@@H]3C[C@H]43)n(-c3ccc(Cl)c4c(NS(C)(=O)=O)nn([C@H](C)CN5CC(C)(C)OC(C)(C)C5)c34)c(=O)c12` (relative stereo) [Example 734, N-[(1S)-1-[(3P)-3-{4-chloro-3-methanesulfonamido-1-[(2R)-1-(2,2,6,6-tetramethylmorpholin-4-yl)propan-2-yl]-1H-indazol-7-yl}-7-(4,4-difluorocyclohexyl)-5-methyl-4-oxo-3H,4H-pyrido[2,3-d]pyrimidin-2-yl]-2-(3,5-difluorophenyl)ethyl]-2-[(2R*,4R*)-9-cyclopropyl-7,8-diazatricyclo[4.3.0.0^2,^4]nona-1(6),8-dien-7-yl]acetamide], the EC50 in data set [1] is 0.038 nM. For the same compound, in data set [2], the CC50 at 4 days was > 20 nM.
In the case of `Cc1cc(C2(F)CCC(F)(F)CC2)nc2nc([C@H](Cc3cc(F)cc(F)c3)NC(=O)Cn3nc(C4CC4)c4c3C[C@@H]3C[C@H]43)n(-c3ccc(Cl)c4c(NS(C)(=O)=O)nn(CCN5CCCC5=O)c34)c(=O)c12` (relative stereo) [Example 738, N-[(1S)-1-[(3P)-3-{4-chloro-3-methanesulfonamido-1-[2-(2-oxopyrrolidin-1-yl)ethyl]-1H-indazol-7-yl}-5-methyl-4-oxo-7-(1,4,4-trifluorocyclohexyl)-3H,4H-pyrido[2,3-d]pyrimidin-2-yl]-2-(3,5-difluorophenyl)ethyl]-2-[(2R*,4R*)-9-cyclopropyl-7,8-diazatricyclo[4.3.0.0^2,^4]nona-1(6),8-dien-7-yl]acetamide], the half-maximal effective concentration (EC50) in data set [1] amounted to 0.043 nM. For the same compound, the CC50 at 4 days in data set [2] is > 20 nM.
For `Cc1cc(C2(F)CCC(F)(F)CC2)nc2nc([C@H](Cc3cc(F)cc(F)c3)NC(=O)Cn3nc(C4CC4)c4c3C[C@@H]3C[C@H]43)n(-c3ccc(Cl)c4c(NS(C)(=O)=O)nn(CCc5cccnc5)c34)c(=O)c12` (relative stereo) [Example 741, N-[(1S)-1-[(3P)-3-{4-chloro-3-methanesulfonamido-1-[2-(pyridin-3-yl)ethyl]-1H-indazol-7-yl}-5-methyl-4-oxo-7-(1,4,4-trifluorocyclohexyl)-3H,4H-pyrido[2,3-d]pyrimidin-2-yl]-2-(3,5-difluorophenyl)ethyl]-2-[(2R*,4R*)-9-cyclopropyl-7,8-diazatricyclo[4.3.0.0^2,^4]nona-1(6),8-dien-7-yl]acetamide] the same measures were 0.04 nM and > 20 nM.
Taken in the same sequence, the figures for `Cc1cc(C2(F)CCC(F)(F)CC2)nc2nc([C@H](Cc3cc(F)cc(F)c3)NC(=O)Cn3nc(C4CC4)c4c3C[C@@H]3C[C@H]43)n(-c3ccc(Cl)c4c(NS(C)(=O)=O)nn([C@H](C)C(=O)N5C[C@@H](C)O[C@@H](C)C5)c34)c(=O)c12` (relative stereo) [Example 744, N-[(1S)-1-[(3P)-3-{4-chloro-1-[(2R)-1-[(2R,6S)-2,6-dimethylmorpholin-4-yl]-1-oxopropan-2-yl]-3-methanesulfonamido-1H-indazol-7-yl}-5-methyl-4-oxo-7-(1,4,4-trifluorocyclohexyl)-3H,4H-pyrido[2,3-d]pyrimidin-2-yl]-2-(3,5-difluorophenyl)ethyl]-2-[(2R*,4R*)-9-cyclopropyl-7,8-diazatricyclo[4.3.0.0^2,^4]nona-1(6),8-dien-7-yl]acetamide] were 0.017 nM and > 20 nM.
For `Cc1cc(C2(F)CCC(F)(F)CC2)nc2nc([C@H](Cc3cc(F)cc(F)c3)NC(=O)Cn3nc(C4CC4)c4c3C[C@@H]3C[C@H]43)n(-c3ccc(Cl)c4c(NS(C)(=O)=O)nn([C@@H](C)CN5C[C@@H](C)O[C@@H](C)C5)c34)c(=O)c12` (relative stereo) [Example 748, N-[(1S)-1-[(3P)-3-{4-chloro-1-[(2S)-1-[(2R,6S)-2,6-dimethylmorpholin-4-yl]propan-2-yl]-3-methanesulfonamido-1H-indazol-7-yl}-5-methyl-4-oxo-7-(1,4,4-trifluorocyclohexyl)-3H,4H-pyrido[2,3-d]pyrimidin-2-yl]-2-(3,5-difluorophenyl)ethyl]-2-[(2R*,4R*)-9-cyclopropyl-7,8-diazatricyclo[4.3.0.0^2,^4]nona-1(6),8-dien-7-yl]acetamide] the same measures were 0.024 nM and > 20 nM.
As for `Cc1cc(C2(F)CCC(F)(F)CC2)nc2nc([C@H](Cc3cc(F)cc(F)c3)NC(=O)Cn3nc(C4CC4)c4c3C[C@@H]3C[C@H]43)n(-c3ccc(Cl)c4c(NS(C)(=O)=O)nn([C@H](C)C(=O)N5CC(C)(C)OC(C)(C)C5)c34)c(=O)c12` (relative stereo) [Example 750, N-[(1S)-1-[(3P)-3-{4-chloro-3-methanesulfonamido-1-[(2R)-1-oxo-1-(2,2,6,6-tetramethylmorpholin-4-yl)propan-2-yl]-1H-indazol-7-yl}-5-methyl-4-oxo-7-(1,4,4-trifluorocyclohexyl)-3H,4H-pyrido[2,3-d]pyrimidin-2-yl]-2-(3,5-difluorophenyl)ethyl]-2-[(2R*,4R*)-9-cyclopropyl-7,8-diazatricyclo[4.3.0.0^2,^4]nona-1(6),8-dien-7-yl]acetamide], the EC50 in data set [1] stood at 0.028 nM. Also, the CC50 at 4 days in data set [2] was > 20 nM.
Consider `Cc1cc(C2(F)CCC(F)(F)CC2)nc2nc([C@H](Cc3cc(F)cc(F)c3)NC(=O)Cn3nc(C4CC4)c4c3C[C@@H]3C[C@H]43)n(-c3ccc(Cl)c4c(NS(C)(=O)=O)nn([C@@H](C)CN5C[C@H](F)C[C@H](F)C5)c34)c(=O)c12` (relative stereo) [Example 754, N-[(1S)-1-[(3P)-3-{4-chloro-1-[(2S)-1-[(3R,5S)-3,5-difluoropiperidin-1-yl]propan-2-yl]-3-methanesulfonamido-1H-indazol-7-yl}-5-methyl-4-oxo-7-(1,4,4-trifluorocyclohexyl)-3H,4H-pyrido[2,3-d]pyrimidin-2-yl]-2-(3,5-difluorophenyl)ethyl]-2-[(2R*,4R*)-9-cyclopropyl-7,8-diazatricyclo[4.3.0.0^2,^4]nona-1(6),8-dien-7-yl]acetamide], for which the half-maximal effective concentration (EC50) in data set [1] amounted to 0.075 nM. The CC50 at 4 days in data set [2] is > 20 nM.
Turning to `CS(=O)(=O)Nc1nn(CCN2CCOC(C(F)F)C2)c2c(-n3c([C@H](Cc4cc(F)cc(F)c4)NC(=O)Cn4nc(C(F)F)c5c4C(F)(F)[C@@H]4C[C@H]54)nc4nc(C5CCC(F)(F)CC5)ccc4c3=O)ccc(Cl)c12` (stereo partly drawn) [Example 187, N-[(1S)-1-[(3P)-3-(4-chloro-1-{2-[2-(difluoromethyl)morpholin-4-yl]ethyl}-3-methanesulfonamido-1H-indazol-7-yl)-7-(4,4-difluorocyclohexyl)-4-oxo-3H,4H-pyrido[2,3-d]pyrimidin-2-yl]-2-(3,5-difluorophenyl)ethyl]-2-[(2S,4R)-9-(difluoromethyl)-5,5-difluoro-7,8-diazatricyclo[4.3.0.0^2,4]nona-1(6),8-dien-7-yl]acetamide], the concentration for a half-maximal effect (EC50) in data set [1] amounted to 0.032 nM. Moreover, in data set [2], the half-maximal cytotoxic concentration (CC50) at 4 days was > 50 nM.
For `CC1(C)CN(CCn2nc(NS(C)(=O)=O)c3c(Cl)ccc(-n4c([C@H](Cc5cc(F)cc(F)c5)NC(=O)Cn5nc(C(F)F)c6c5C(F)(F)[C@@H]5C[C@H]65)nc5nc(C6CCC(F)(F)CC6)ccc5c4=O)c32)CC(C(F)(F)F)O1` (stereo partly drawn) [Example 189], the EC50 in data set [1] is 0.035 nM. For the same compound, the cytotoxic concentration (CC50) at 4 days in data set [2] is > 50 nM.
As to `CS(=O)(=O)Nc1nn(CCN2CCC(F)(C(F)(F)F)C2)c2c(-n3c([C@H](Cc4cc(F)cc(F)c4)NC(=O)Cn4nc(C(F)F)c5c4C(F)(F)[C@@H]4C[C@H]54)nc4nc(C5CCC(F)(F)CC5)ccc4c3=O)ccc(Cl)c12` (stereo partly drawn) [Example 191, N-[(1S)-1-[(3P)-3-(4-chloro-1-{2-[3-fluoro-3-(trifluoromethyl)pyrrolidin-1-yl]ethyl}-3-methanesulfonamido-1H-indazol-7-yl)-7-(4,4-difluorocyclohexyl)-4-oxo-3H,4H-pyrido[2,3-d]pyrimidin-2-yl]-2-(3,5-difluorophenyl)ethyl]-2-[(2S,4R)-9-(difluoromethyl)-5,5-difluoro-7,8-diazatricyclo[4.3.0.0^2,^4]nona-1(6),8-dien-7-yl]acetamide], the EC50 in data set [1] was found to be 0.024 nM. For the same compound, the CC50 at 4 days in data set [2] is > 50 nM.
